Measurements published in patent US5126345A, “Bis (hydroxymethyl) cyclobutyl triazolopyrimidines” (E. R. Squibb & Sons, Inc., priority 1991, dated 1992).
Where two headings read alike, the source gives them in different places.

Experiments:
Assay type in all cases: cell-based
[1] = tested on: HSV-1 (herpes simplex virus type 1, strain Schooler); experiment: HSV-1 antiviral assay, plaque reduction in WI-38 cell culture monolayers; details: Human alphaherpesvirus 1, 96 h; at least 50% plaque reduction; WI-38 cells; 4 days incubation at 37° C; read-out: ID50 HSV-1
Description: (§1) Assays were performed in cell culture systems to determine the concentrations of compounds that are effective in preventing several kinds of viral infections.
(§2) HSV-1 (herpes simplex virus type 1, strain Schooler), HSV-2 (herpes simplex virus type 2, strain 186), VZV (varicella zoster virus, strain ELLEN), HCMV (human cytomegalovirus, strain AD 169), MuLV (murine leukemia virus, strain CAS), HIV (human immunodeficiency virus, strain HTLV-IIIB).
(§3) HSV-1, HSV-2, HCMV, and VZV antiviral assays: Virus was adsorbed to WI-38 cell culture monolayers in 6 well culture plates (Costar, Cambridge, MA) for 1 hour prior to addition of maintenance medium containing duplicate dilutions of the test compound. Inhibition of plaque development was evaluated on fixed and stained monolayers after 4 days incubation at 37° C. for HSV-1 and HSV-2 and after 6-7 days incubation at 37° C. for HCMV and VZV. ID50 values were determined from the drug concentration which conferred at least a 50% plaque reduction compared to virus controls.

[2] = tested on: VZV (varicella zoster virus, strain ELLEN); experiment: VZV antiviral assay, plaque reduction in WI-38 cell culture monolayers
Description: as §1, §2, §3

[3] = tested on: HSV-2 (herpes simplex virus type 2, strain 186); experiment: HSV-2 antiviral assay, plaque reduction in WI-38 cell culture monolayers; details: Human alphaherpesvirus 2, 96 h; at least 50% plaque reduction; WI-38 cells; 4 days incubation at 37° C; read-out: ID50 HSV-2
Description: as §1, §2, §3

[4] = tested on: HCMV (human cytomegalovirus, strain AD 169); experiment: HCMV antiviral assay, plaque reduction in WI-38 cell culture monolayers
Description: as §1, §2, §3

[5] = tested on: MuLV (murine leukemia virus, strain CAS); experiment: MuLV antiviral assay, syncytial plaques, SC-1 cells with XC cell overlay; details: SC1, read-out: ID50 MuLV
Description: as §1, §2
MuLV antiviral assay: Antiviral assays using MuLV were performed with some modification, as described by Rowe et al. and Shannon et al.. SC-1 cells were planted at approximately 2×10^5 cell per well in 6 well plates. After overnight incubation at 37° C., the cell cultures were sensitized with DEAE-Dextran for one hour at 37° C., rinsed and inoculated with MuLV. Cultures were re-fed with growth medium containing different concentrations of the test compound. After three more days at 37° C., cultures were re-fed with fresh medium plus test compounds and incubated at 37° C. for an additional 3 days. Cultures were then washed to remove medium, ultraviolet light irradiated, and planted with approximately 5×10^5 XC cells per well in cell growth medium containing the appropriate concentration of the test compound. […] Finally the cultures were rinsed, stained and syncytial plaques were counted. […]

[6] = Human alphaherpesvirus 3, at least 50% plaque reduction, WI-38 cells, 6-7 days incubation at 37° C, read-out: ID50 VZV
[7] = Human betaherpesvirus 5, WI-38, read-out: ID50 HCMV
[8] = Human alphaherpesvirus 3, WI-38, read-out: ID50 VZV

## O=c1[nH]c(=O)n([C@H]2C[C@@H](CO)[C@@H]2CO)cc1I (relative stereo) [(1α,2β,3α)-1-[2,3-Bis(hydroxymethyl)cyclobutyl]-5-iodo-2,4(1H,3H)-pyrimidinedione]
[1]
  IC50: 6 to 14 µM
[2]; [6]
  IC50: 14 to 28 µM

## Nc1ncnc2c1ncn2[C@H]1C[C@@H](CO)[C@@H]1CO (relative stereo) [(1α,2β,3α)-3-(6-Amino-9H-purin-9-yl)1,2-cyclobutanedimethanol]
[3]
  IC50: 4 to 8 µM
[4]; [7]
  IC50: 0.8 µM
[1]
  IC50: 8 µM
[2]; [6]
  IC50: 0.8 to 2 µM

## Nc1nc2c(ncn2[C@H]2C[C@@H](CO)[C@@H]2CO)c(=O)[nH]1 (relative stereo) [(1α,2β,3α)-9-[2,3-Bis(hydroxymethyl)cyclobutyl]guanine]
[3]
  IC50: 0.04 to 0.08 µM
[5]
  IC50: 3.8 µM
[4]; [7]
  IC50: 3.8 µM
[1]
  IC50: 0.08 to 0.2 µM
[2]; [8]
  IC50: 0.2 µM

## Nc1ccn([C@H]2C[C@@H](CO)[C@@H]2CO)c(=O)n1 (relative stereo) [(1α,2β,3α)-4-Amino-1-[2,3-bis(hydroxymethyl)cyclobutyl]-2(1H)-pyrimidinone]
[3]
  IC50: 444 µM
[4]; Human betaherpesvirus 5, at least 50% plaque reduction, WI-38 cells, 6-7 days incubation at 37° C, read-out: ID50 HCMV
  IC50: 22 to 44 µM
[1]
  IC50: 444 µM
[2]; [8]
  IC50: 22 µM

## Nc1nc2c(nnn2[C@H]2C[C@@H](CO)[C@@H]2CO)c(=O)[nH]1 (relative stereo) [(1α,2β,3α)-5-Amino-3-[2,3-bis(hydroxymethyl)cyclobutyl]-3,6-dihydro-7H-1,2,3-triazolo[4,5-d]pyrimidin-7-one]
[3]
  IC50: 7.5 µM
[4]; [7]
  IC50: 376 µM
[1]
  IC50: 7.5 µM

## O=c1[nH]c(=O)n([C@H]2C[C@@H](CO)[C@@H]2CO)cc1/C=C/Br (relative stereo) [[1α(E),2β,3α]-1-[2,3-Bis(hydroxymethyl)cyclobutyl]-5-(2-bromoethenyl)-2,4(1H,3H)pyrimidinedione]
[1]
  IC50: 10 to 30 µM
[2]; [6]
  IC50: 0.03 to 0.06 µM
